This is an account of results in patent US20250115571A1, “OXOPIPERAZINE DERIVATIVES” (Inthera Bioscience AG, priority 2017, published 2025).

The subject of assay [1] is Vascular Endothelial Growth Factor A (VEGF). As to the kind of experiment: Tumor VEGF protein (ELISA) in HCT-116 colorectal cancer cell-derived xenograft. The following applies: HCT-116 xenograft, approximately 4 weeks of treatment with 3 mg/kg or 6 mg/kg. It counts as in vivo, mouse. The protocol: Mice from groups 1, 2, 4 and 5 of the HCT-116 colorectal cancer model (TABLE 12, EXAMPLE 324) and MKN45 gastric cancer model (TABLE 14, EXAMPLE 325) were used to analyze tumor Vascular Endothelial Growth Factor A (VEGF) protein expression at the end of the experiment. Tumors homogenates were prepared using a 2× Lysis Buffer (RayBiotech Life, Norcross, GA, USA) according to manufacturer's instructions. VEGF was quantified in 50 micrograms tumor by ELISA (Human VEGF Quantikine ELISA Kit, R&D Systems) according to manufacturer's instructions.

Assay [2] concerns androgen receptor (AR)-target genes KLK3, TMPRSS2, SLC45A3 in LNCaP cells. The assay is described as follows: P300/CBP-androgen receptor target gene expression regulation in prostate cancer cells (RT-qPCR). It counts as cell-based, human. The following applies: 300 nM added concomitantly to DHT (100 nM, 4 hours). On the procedure: LNCaP prostate cancer cells (CLS GmbH) were seeded at a density of 15′000 cells/cm^2 in 48-well cell culture-treated plates and cultured for 72 hours in RPMI1640 medium (Sigma-Aldrich) supplemented with Glutamax I (ThermoFisher-Gibco), “Antibiotic and Antimycotic Solution” (Sigma-Aldrich) and 1% fetal calf serum (Sigma-Aldrich). AR-driven gene expression response was induced by addition of the androgen signaling agonist dihydrotestosterone (Selleck Chemicals, Houston, TX, USA) to a concentration of 100 nanomol/Lt for 4 hours. Cells were treated with Compound 258 during dihydrotestosterone induction. Culture medium was carefully removed, cells were washed 1× with Phosphate-Buffered Saline (Sigma-Aldrich) and lysed using the SingleShot Cell Lysis Kit (Bio-Rad, Hercules, CA, USA). Gene expression of well-known AR-responsive genes prostate-specific antigen (KLK3, ThermoFisher), transmembrane serine protease 2 (TMPRSS2, ThermoFisher) and prostein (SLC45A3, ThermoFisher) was assessed by quantitative PCR after reverse transcription of the LNCaP RNA with the Applied Biosystem High-Capacity cDNA Reverse Transcription Kit (ThermoFisher). Gene expression was normalized against four reference genes (RPLP0, GUSB, GAPDH and ACTB, all probe detection systems were from Bio-Rad).
A general note: Quantitative PCR measures a nucleic acid by following its amplification.

For the next assay, the system named is OVCAR-3. As to the kind of experiment: 5-day cell proliferation assay (CTG). The format is cell-based. Conditions: Homo sapiens, 120 h, OVCAR-3, Ovary. The method in brief:
(§1)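 Using triplicate wells, compound-treated cultures are kept for 5 days at 37 °C and then quantified by CTG luminescence after 10 min in the dark at room temperature. A day 0 plate records starting density; GI50 comes from a sigmoidal curve fit.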

Another assay deals with MIA PaCa-2. The assay is described as follows: 5-day cell proliferation assay (CTG). The format is cell-based. The following applies: Homo sapiens, 120 h, MIA PaCa-2, Pancreas. The method in brief:
as §1

The test system of the next assay is LNCaP-FGC. As to the kind of experiment: 5-day cell proliferation assay (CTG). The format is cell-based. The following applies: Homo sapiens, 120 h, Prostate. The method in brief: as §1
Another assay relates to CaSki. The assay is described as follows: 5-day cell proliferation assay (CTG). The format is cell-based. The following applies: Homo sapiens, Ca-Ski, 120 h, Cervix. The method in brief: as §1
The next assay relates to HEP-3B. The assay is described as follows: 5-day cell proliferation assay (CTG). The format is cell-based. Conditions: Homo sapiens, Hep3B, 120 h, Liver. The method in brief:
as §1

Assay [3] has as its system SiHa human HPV16-positive cervical cancer cells. The assay is described as follows: Cell-derived xenograft mouse model for cervical cancer (SiHa CDX). It counts as in vivo. The following applies: for Tumor Size day 37: SiHa CDX, female BALB/c nude mice, Mean ± SEM; for T/C: day 37, tumor-to-control ratio (volume/volume). The protocol: Female BALB/c nude mice (7-9 weeks of age) were injected with SiHa human HPV16-positive (Human Papillomavirus type 16) cervical cancer cells. The cells were inoculated subcutaneously into the left flank of 48 mice. When tumors reached a mean volume of approximately 111 mm^3, mice were randomly assigned to eight treatment groups of each six mice (TABLE 18). Body weights were measured three times weekly prior to the initiation of dosing and daily thereafter. Tumor burden was assessed by caliper measurement twice weekly. Dosing breaks were applied when tolerability issues arose (body weight loss>10%). The study was terminated four weeks post first dosing. The experiment was performed in the Crown Bioscience Ltd. (Beijing) testing facility (Ground Floor, Light Muller Building, Changping Sector of Zhongguancun Scientific Park, No. 21 Huoju Road, Changping District, Beijing, CHIN).

The test system of assay [4] is prostate-specific antigen (PSA). As to the kind of experiment: Serum PSA (ELISA) in the castration-resistant prostate cancer patient-derived xenograft mouse model. It counts as in vivo. Conditions: five mice with detectable tumors; daily 10 and 3 mg/kg (two mice) or 6 mg/kg (three mice); blood 3 h after the last dose. On the procedure:
Mice from groups 1, 3 and 4 of the CPRC prostate patient-derived xenograft model (TABLE 9, EXAMPLE 322) were used to analyze serum PSA at the end of the experiment. […] PSA was detected by ELISA (Human Kallikrein 3/PSA Quantikine ELISA Kit, R&D Systems, Minneapolis, MN, USA) according to manufacturer's instructions. Minimal relative expected PSA-levels were calculated based on minimal PSA/tumor size ratio of vehicle-treated mice.
(In an ELISA, binding on a coated surface is turned into a signal by an enzyme label.)

The mark [5] stands for this setting: 1 mg/kg, BID, p.o., listed as Compound 258.
Where [6] appears, read: 3 mg/kg, BID/QD (p.o. BID, QD from treatment day 7 on).

Broadly, the GI50 is the concentration at which growth is held to half of that of the control. Higher therefore signals lower sensitivity of the cells. The term T/C denotes the result in the treated group divided by that in the control group, in per cent. Turning to `CC(C)C[C@@H]1NCCN([C@@H](CC(C)C)C(=O)N2CCC3(C[C@@H]2C)OCC(CN2CCCC2)CO3)C1=O` (stereo partly drawn) [Compound 258, (3S)-1-[(2S)-4-methyl-1-oxo-1-[(3s,6s,8S)-8-methyl-3-(pyrrolidin-1-ylmethyl)-1,5-dioxa-9-azaspiro[5.5]undec-an-9-yl]pentan-2-yl]-3-(2-methylpropyl)piper-azin-2-one (^≠), isomer Z], the “tumor VEGF protein levels” value in assay [1] is “significantly reduced”. In assay [2], the “repression of PSA (KLK3) gene expression stimulation” value is “complete repression”. In assay [2], the “repression of SLC45A3 gene expression stimulation” value is given as 80%. In assay [2], the “repression of TMPRSS2 gene expression stimulation” value was determined as 85%. Further, the GI50 in the assay with OVCAR-3 is 44 nM; with MIA PaCa-2, 11 nM; with LNCaP-FGC, 2 nM; with CaSki it was 35 nM; in the assay on HEP-3B, 23 nM. In addition, the “Tumor Size day 37” value in [3] (setting [5]) was found to be 296 ± 27 mm^3; in assay [3] (setting [6]), 104 ± 30 mm^3. The T/C came out at 31.6% in [3] (setting [5]) and 11.1% in assay [3] (setting [6]). The “serum prostate-specific antigen (PSA) levels versus minimal relative expected PSA-levels” value in [4] is given as “clear reduction”.
